Laboratory results as given in patent US12077503B2, “Substituted cyclic amides and their use as herbicides” (FMC CORPORATION, priority 2015, dated 2024).

Legend:
Type in all cases: in vivo
[1] = tested on: ivy-leaved morning glory (Ipomoea hederacea); assay: Test G Pre-Emergence Protocol; conditions: Ipomoea, pre-emergence, 312 h, evaluated after 13 days
Procedure, shortened: (§1)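 Test compound in 0.5% Tween 20 acetone/water (50:50) was applied at three rates (15.625, 62.5, 250 g/ha) to soil sown one day earlier. After 13 days plants were scored for injury, where 0 means unaffected and 100 means completely damaged.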

[2] = tested on: giant foxtail (Setaria faberi); assay: Test G Pre-Emergence Protocol; conditions: Setaria faberi, pre-emergence, 312 h, evaluated after 13 days
Procedure, shortened: as §1

[3] = tested on: barnyardgrass (Echinochloa crus-galli); assay: Test G Pre-Emergence Protocol; conditions: Echinochloa crus-galli, pre-emergence, 312 h, evaluated after 13 days
Procedure, shortened: as §1

corn (Zea mays) [4] = assay: Test G Pre-Emergence Protocol; conditions: Zea mays, pre-emergence, 312 h, evaluated after 13 days
Procedure, shortened: as §1

[5] = tested on: velvetleaf (Abutilon theophrasti); assay: Test G Pre-Emergence Protocol; conditions: Abutilon theophrasti, pre-emergence, 312 h, evaluated after 13 days
Procedure, shortened: as §1

[6] = tested on: redroot pigweed (Amaranthus retroflexus); assay: Test G Pre-Emergence Protocol; conditions: Amaranthus retroflexus, pre-emergence, 312 h, evaluated after 13 days
Procedure, shortened: as §1

[7] = tested on: ivy-leaved morning glory (Ipomoea hederacea); assay: Test G Post-Emergence Protocol; conditions: Ipomoea, post-emergence, 312 h
Procedure, shortened: (§2)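 Foliar application was made 8 days after sowing, using an aqueous spray of the active in acetone/water (50:50) with 0.5% Tween 20, at doses of 15.625, 62.5 or 250 g/ha. Injury was assessed 13 days later, where 100 meant the plant was fully damaged.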

[8] = tested on: giant foxtail (Setaria faberi); assay: Test G Post-Emergence Protocol; conditions: Setaria faberi, post-emergence, 312 h
Procedure, shortened: as §2

[9] = tested on: barnyardgrass (Echinochloa crus-galli); assay: Test G Post-Emergence Protocol; conditions: Echinochloa crus-galli, post-emergence, 312 h
Procedure, shortened: as §2

corn (Zea mays) [10] = assay: Test G Post-Emergence Protocol; conditions: Zea mays, post-emergence, 312 h
Procedure, shortened: as §2

[11] = tested on: velvetleaf (Abutilon theophrasti); assay: Test G Post-Emergence Protocol; conditions: Abutilon theophrasti, post-emergence, 312 h
Procedure, shortened: as §2

[12] = tested on: redroot pigweed (Amaranthus retroflexus); assay: Test G Post-Emergence Protocol; conditions: Amaranthus retroflexus, post-emergence, 312 h
Procedure, shortened: as §2

In the case of `Cc1ccc([C@@H]2CN(C)C(=O)[C@H]2C(=O)Nc2cccc(F)c2F)cc1Cl` (racemic) [Compound 1475], the pest or weed control at 15.625 g/ha ([1]; 15.625 g ai/ha, read-out: Morning-glory, Ivy-leaved damage rating (100=total damage to plant; 0=no damage to plant)) is reported as 0%, the pest or weed control at 62.5 g/ha ([1]; 62.5 g ai/ha, 100=total damage to plant, 0=no damage to plant, read-out: plant damage rating, Morningglory, Ivy-leaved) is reported as 0% and the pest or weed control at 250 g/ha ([1]; 250 g ai/ha, read-out: Morningglory, Ivy-leaved damage rating (100=total damage to plant; 0=no damage to plant)) is reported as 10%. The pest or weed control at 15.625 g/ha ([2]; 15.625 g ai/ha, read-out: Foxtail, Giant damage rating (100=total damage to plant; 0=no damage to plant)) was 70%, the pest or weed control at 62.5 g/ha ([2]; 62.5 g ai/ha, 100=total damage to plant, 0=no damage to plant, read-out: plant damage rating, Foxtail, Giant) was 80% and the pest or weed control at 250 g/ha ([2]; 250 g ai/ha, read-out: Foxtail, Giant damage rating (100=total damage to plant; 0=no damage to plant)) was 90%. The pest or weed control at 15.625 g/ha ([3]; 15.625 g ai/ha, read-out: Barnyard grass damage rating (100=total damage to plant; 0=no damage to plant)) was 10%, the pest or weed control at 62.5 g/ha ([3]; 62.5 g ai/ha, 100=total damage to plant, 0=no damage to plant, read-out: plant damage rating, Barnyardgrass) was 70% and the pest or weed control at 250 g/ha ([3]; 250 g ai/ha, read-out: Barnyardgrass damage rating (100=total damage to plant; 0=no damage to plant)) was 80%. It also gave a plant injury at 15.625 g/ha (corn (Zea mays) [4]; 15.625 g ai/ha, read-out: Corn damage rating (100=total damage to plant; 0=no damage to plant)) of 0%, a plant injury at 62.5 g/ha (corn (Zea mays) [4]; 62.5 g ai/ha, 100=total damage to plant, 0=no damage to plant, read-out: plant damage rating, Corn) of 30% and a plant injury at 250 g/ha (corn (Zea mays) [4]; 250 g ai/ha, read-out: Corn damage rating (100=total damage to plant; 0=no damage to plant)) of 50%. It also gave a pest or weed control at 15.625 g/ha ([5]; 15.625 g ai/ha, read-out: Velvetleaf damage rating (100=total damage to plant; 0=no damage to plant)) of 0%, a pest or weed control at 62.5 g/ha ([5]; 62.5 g ai/ha, 100=total damage to plant, 0=no damage to plant, read-out: plant damage rating, Velvetleaf) of 0% and a pest or weed control at 250 g/ha ([5]; 250 g ai/ha, read-out: Velvetleaf damage rating (100=total damage to plant; 0=no damage to plant)) of 0%. The pest or weed control at 15.625 g/ha ([6]; 15.625 g ai/ha, read-out: Pigweed, Redroot damage rating (100=total damage to plant; 0=no damage to plant)) was 0%, the pest or weed control at 62.5 g/ha ([6]; 62.5 g ai/ha, 100=total damage to plant, 0=no damage to plant, read-out: plant damage rating, Pigweed, Redroot) was 0% and the pest or weed control at 250 g/ha ([6]; 250 g ai/ha, read-out: Pigweed, Redroot damage rating (100=total damage to plant; 0=no damage to plant)) was 0%. The pest or weed control at 15.625 g/ha ([7]; 15.625 g ai/ha, evaluated after 13 days (100=total damage to plant; 0=no damage to plant), read-out: Morningglory, Ivy-leaved damage rating) was 20%, the pest or weed control at 62.5 g/ha ([7]; 62.5 g ai/ha, evaluated after 13 days, read-out: Morningglory, Ivy-leaved damage rating (100=total damage to plant; 0=no damage to plant)) was 0% and the pest or weed control at 250 g/ha ([7]; 250 g ai/ha, evaluated after 13 days, read-out: damage to plant, Morningglory, Ivy-leaved (100=total damage to plant; 0=no damage to plant)) was 70%. It also gave a pest or weed control at 15.625 g/ha ([8]; 15.625 g ai/ha, evaluated after 13 days (100=total damage to plant; 0=no damage to plant), read-out: Foxtail, Giant damage rating) of 70%, a pest or weed control at 62.5 g/ha ([8]; 62.5 g ai/ha, evaluated after 13 days, read-out: Foxtail, Giant damage rating (100=total damage to plant; 0=no damage to plant)) of 70% and a pest or weed control at 250 g/ha ([8]; 250 g ai/ha, evaluated after 13 days, read-out: damage to plant, Foxtail, Giant (100=total damage to plant; 0=no damage to plant)) of 70%. It also gave a pest or weed control at 15.625 g/ha ([9]; 15.625 g ai/ha, evaluated after 13 days (100=total damage to plant; 0=no damage to plant), read-out: Barnyardgrass damage rating) of 30%, a pest or weed control at 62.5 g/ha ([9]; 62.5 g ai/ha, evaluated after 13 days, read-out: Barnyardgrass damage rating (100=total damage to plant; 0=no damage to plant)) of 60% and a pest or weed control at 250 g/ha ([9]; 250 g ai/ha, evaluated after 13 days, read-out: damage to plant, Barnyardgrass (100=total damage to plant; 0=no damage to plant)) of 50%. It also gave a plant injury at 15.625 g/ha (corn (Zea mays) [10]; 15.625 g ai/ha, evaluated after 13 days (100=total damage to plant; 0=no damage to plant), read-out: Corn damage rating) of 30%, a plant injury at 62.5 g/ha (corn (Zea mays) [10]; 62.5 g ai/ha, evaluated after 13 days, read-out: Corn damage rating (100=total damage to plant; 0=no damage to plant)) of 40% and a plant injury at 250 g/ha (corn (Zea mays) [10]; 250 g ai/ha, evaluated after 13 days, read-out: damage to plant, Corn (100=total damage to plant; 0=no damage to plant)) of 70%. For the same compound, the pest or weed control at 15.625 g/ha ([11]; 15.625 g ai/ha, evaluated after 13 days (100=total damage to plant; 0=no damage to plant), read-out: Velvetleaf damage rating) was 10%, the pest or weed control at 62.5 g/ha ([11]; 62.5 g ai/ha, evaluated after 13 days, read-out: Velvetleaf damage rating (100=total damage to plant; 0=no damage to plant)) was 10% and the pest or weed control at 250 g/ha ([11]; 250 g ai/ha, evaluated after 13 days, read-out: damage to plant, Velvetleaf (100=total damage to plant; 0=no damage to plant)) was 10%. For the same compound, the pest or weed control at 15.625 g/ha ([12]; 15.625 g ai/ha, evaluated after 13 days (100=total damage to plant; 0=no damage to plant), read-out: Pigweed, Redroot damage rating) was 10%, the pest or weed control at 62.5 g/ha ([12]; 62.5 g ai/ha, evaluated after 13 days, read-out: Pigweed, Redroot damage rating (100=total damage to plant; 0=no damage to plant)) was 30% and the pest or weed control at 250 g/ha ([12]; 250 g ai/ha, evaluated after 13 days, read-out: damage to plant, Pigweed, Redroot (100=total damage to plant; 0=no damage to plant)) was 50%.
